The test system of series [1] is human epithelial cervical carcinoma (HeLa) cells. Conditions: MTT; cited from earlier work.
The test system of series [2] is A549 human lung adenocarcinoma cells. Description: MTT cytotoxicity assay. The series is classed as cell-based. Conditions: MTT, 24 hours. Here is the method: In order to be used from this stock, the concentrations ranging from 0.12 to 500 µg/mL (with the highest DMSO ratio of 0.1%) were prepared.
A549 human lung adenocarcinoma cells (ATCC® CCL-185™) were grown in RPMI 1640 medium supplemented with 10% fetal bovine serum, 1% penicillin/streptomycin, in an incubator with carbon dioxide, in a culture medium at 37°C at 95% relative humidity.
MTT protocol was applied to determine cell viability. […] At the end of the incubation period, 20 µL of MTT dye (5 mg/mL) was added into each well, and the cells were incubated for an additional 4 hours at 37°C. After this process, MTT dye was removed from the cells, 200 µL of DMSO was added to each well and left to incubate for 10 minutes. Color change was detected at 540 nm in the ELx808-IU Bio-Tek plate reader. Inhibition% values were determined for each concentration of compounds. Inhibitory concentration 50 (IC50) values of the compounds were calculated by drawing a dose-response curve with their concentrations against these values. All experiments were carried out in triplicate. The results were given as mean±standard deviation. Inhibition% = 100−[(ODtest compound−ODblank/ODsolvent control−ODblank)×100] [formula]
Selective index (SI) values were determined using the following formula. SI […] IC50 for NIH/3T3 cell line/IC50 for A549 cell line [formula]

The test system of a further series is A549 cells. Description: FITC Annexin V/PI apoptosis detection by flow cytometry. The series is classed as cell-based, human. The conditions noted are these: at IC50 concentrations. Here is the method:
The cells incubated with the compounds were centrifuged at 400 × g for 5 minutes in labeled tubes and washed twice with 1xPBS. Then, the cells were suspended in 1×Annexin-V binding solution at 1×10^6 cells/mL and 100 µL of this cell solution was taken and transferred to tubes. The cells were treated with 5 µL Annexin V FITC and 5 µL of propidium iodide (PI) dyes. Then, the cells were kept at room temperature in the dark for 15 minutes to allow the dye to bind. 400 µL of 1×Annexin-V binding cell solution was transferred to flow cytometry tubes and the amount of early and late apoptotic cells was determined relative to the positive control using the BD FACSAria flow cytometer FACSDiva version 6.1.1 software.

A further series deals with Akt. The series is described as follows: Akt activity assay (Akt colorimetric in cell ELISA). The series is classed as cell-based, human. The conditions noted are these: 24 hours. Here is the method:
Briefly, the media was removed from the wells and 100 µL of 4% formaldehyde was added. The plate was incubated for 15 minutes in a fume hood. Formaldehyde was removed and the plate was washed twice with 1X […] solution (TBS) to 100 µL/well. 1X TBS was removed and 100 µL of 1X permeabilization buffer was added to each well and left at room temperature for 15 minutes. After removing the 1X permeabilization buffer, the wells were washed once with 100 µL of 1X TBS. 1X TBS was removed and 100 µL of the quenching solution was added to the wells and left at room temperature for 20 minutes. Then, this solution was removed. The plate was washed once with 1X TBS, 100 µL of blocking buffer was added to the wells and left at room temperature for 30 minutes. At the end of this period, the blocking buffer was removed and 50 µL of primary antibody was added to the wells. The plate was closed with a sealer and incubated overnight at 4°C. The primary antibody was removed and plate wells were washed three times with 100 µL of wash buffer. After removing the wash buffer, 100 µL of diluted horseradish peroxidase (HRP) conjugate was added to the wells. It was incubated for 30 minutes at room temperature. After removing this conjugate, 100 µL of 3,3',5,5'-tetramethylbenzidine (TMB) stop solution was added and absorbance was measured at 450 nm for 30 minutes. The experiment was carried out in triplicate. The values of the blank wells were subtracted from the values of the untreated control and treated cells. The Akt activity% was determined as the relative absorbance of treated versus untreated control cells.

In the next series the test system is K562 cell line. The conditions noted are these: cited from earlier work.
Series [3] concerns lung cancer (H-157) cell line. Conditions: cited from earlier work.
In series [4] the test system is human HCC (HepG2) cell line. The conditions noted are these: cited from earlier work.
A further series deals with HCC rats. The conditions noted are these: cited from earlier work.
Series [5] concerns kidney fibroblast (BHK-21) cells. Conditions: cited from earlier work.
Another series relates to HCT116 cell line. The conditions noted are these: cited from earlier work.
The test system of the next series is HeLa cell line. Conditions: cited from earlier work.
For another series, the system named is PC-3 cell line. The conditions noted are these: cited from earlier work.
Series [6] relates to human hepatocellular carcinoma (HCC) cell line (HepG2). The conditions noted are these: HepG2, MTT; cited from earlier work.
Series [7] concerns human cervical carcinoma (HeLa). The conditions noted are these: cited from earlier work.
The subject of the next series is colon carcinoma (HCT116). Conditions: HCT116, MTT; read-out: LC50 (the source's name); cited from earlier work.
Series [8] concerns breast adenocarcinoma (MCF-7). The conditions noted are these: MCF-7, MTT; read-out: LC50 (the source's name); cited from earlier work.
In another series the test system is human lung cancer (A549). The conditions noted are these: cited from earlier work.
The test system of series [9] is human colon epithelial cells (HT-29). The conditions noted are these: cited from earlier work.
Series [10] relates to human lung adenocarcinoma (A549). Conditions: cited from earlier work.
The subject of series [11] is breast adenocarcinoma (MCF-7). The conditions noted are these: cited from earlier work.
In series [12] the test system is ovarian carcinoma (SKOV3). Conditions: cited from earlier work.
The next series concerns tubulin. The conditions noted are these: tubulin polymerization; cited from earlier work.
The next series deals with lung cancer (H157) cells. Conditions: cited from earlier work.
Series [13] concerns human breast cancer (MCF-7). The conditions noted are these: cited from earlier work.

For the compound `CS(=O)(=O)c1ccc(Cc2n[nH]c(=S)n2N=Cc2c(F)cccc2Cl)cc1` [4-{ [(2-chloro-6-fluorophenyl)methylene]amino}-5-[4-(methylsulfonyl)benzyl]-2,4-dihydro-3H-1,2,4-triazole-3-thione], the EC50 in series [1] is 25 µM.
`N.N.[Cl][Pt][Cl]` [Cisplatin, reference compound]: the “IC50 values A549 cell line” value in [2] worked out at 11.50 ± 0.71 µg/mL. In the series on A549 cells, the “Early apoptotic cells %” value is given as 1.8%. For the same compound, the “Late apoptotic cells %” value in the series on A549 cells worked out at 5.8%. Moreover, the Necrosis % in the series on A549 cells is recorded as 7.0%. Further, the apoptotic activity with A549 cells (early plus late apoptotic cells) was found to be 7.6%. Further, the results for the Inhibition % with Akt (5.75 µg/mL) and in the series on Akt (11.50 µg/mL) were 40.70±1.62% and 97.89±0.86%, respectively. Further, the “IC50 value (Akt inhibitory effects)” value in the series on Akt is 7.00 ± 0.50 µg/mL. Further, the figures for the IC50 (in the series on K562 cell line; in series [3]) were 5.45 ± 0.18 µM and 1.31 ± 0.03 µM, respectively.
Consider `O=C(CNNc1nnc2n1NC=C(c1ccccc1)S2)c1ccccc1` [1-phenyl-2-(2-(7-phenyl-5H-[1,2,4]triazolo[3,4-b][1,3,4]thiadiazine-3-yl)hydrazinyl)ethanone], for which, in series [4], the IC50 is 19.6 µM. Besides, in the series with HCC rats, the “inhibition of hepatic tyrosine kinase (HTK) expression” value is listed as 45% and the “reduction of vascular endothelial growth factor (VEGF) level” value is 30%. For the same compound, in the series on HCC rats (compared to the HCC group), the “improvement of liver level of glutathione (GSH)” value is reported as 99% and the “improvement of liver level of lipid peroxides” value is 62%.
Consider `Cc1ccc(C2=Nn3c(nnc3-c3ccncc3)SC2)cc1` [3-(pyridine-4-yl)-6-(p-tolyl)-7H-[1,2,4]triazolo[3,4-b][1,3,4]thiadiazine], for which the inhibition in [5] is 72.6%.
With `O=c1[nH]cc(F)c(=O)[nH]1` [5-fluorouracil], the IC50 was 68.7 µM in the series with HCT116 cell line, 57.2 µM in the series on HeLa cell line and 57 µM in the series with PC-3 cell line.
`S=c1[nH]nc(OCc2ccccc2)n1N=Cc1c[nH]nc1-c1ccc(Cl)cc1` [4-((3-(4-chlorophenyl)-1H-pyrazole-4-methylene)amino)-5-(benzyloxy)-2,4-dihydro-1,2,4-triazole-3-thione]: the IC50 in series [6] is 0.018 µM.
`COc1cccc2c1C(=O)c1c(O)c3c(c(O)c1C2=O)C[C@@](O)(C(=O)CO)C[C@@H]3O[C@H]1C[C@H](N)[C@H](O)[C@H](C)O1` [doxorubicin]: the IC50 in series [7] was 8.72 µM; in the series on human lung cancer (A549), 4.52 µM; in series [4], 36.3 µM. Also, the CC50 is 37.7 µM in the series on colon carcinoma (HCT116) and 26.1 µM in series [8]. Moreover, the EC50 in series [1] was 2.5 µM.
With `COc1cccc(C2=Nn3c(nnc3-c3ccncc3)SC2)c1` [6-(3-methoxyphenyl)-3-(pyridine-4-yl)-7H-[1,2,4]triazolo[3,4-b][1,3,4]thiadiazine], the inhibition in series [5] is on record as 73.3%.
With `CS(=O)(=O)c1ccc(Cc2nnc3n2N=C(c2ccc(-c4ccccc4)cc2)CS3)cc1` [6-(biphenyl-4-yl)-3-(4-(methylsulfonyl)benzyl)-7H-[1,2,4]triazolo[3,4-b][1,3,4]thiadiazine], the IC50 in series [9] is 12.5 µM.
Take `COc1cc(C2=Nn3c(nnc3-c3ccccc3)SC2)cc(OC)c1OC` [3-phenyl-6-(3,4,5-trimethoxyphenyl)-7H-[1,2,4]triazolo[3,4-b][1,3,4]thiadiazine]: the IC50 in [10] was 3.71 ± 0.13 µM; in series [11], 0.7 ± 0.04 µM; in [12], 4.63 ± 0.09 µM; in the series on tubulin, 1.61 µM.
Consider `S=C(Nc1ccc(Oc2ccccc2)cc1)Nc1nc(-c2nnc(S)n2-c2ccc(Oc3ccccc3)cc2)cs1` [1-[4-(5-Mercapto-4-(4-phenoxyphenyl-4H-1,2,4-triazole-3-yl)thiazole-2-yl]-3-(4-phenoxyphenyl)thiourea], for which the CC50 in the series on colon carcinoma (HCT116) is 23.5 µM; in series [8], 17.4 µM.
Regarding `COc1cc(-c2nnc(SCC(=O)c3ccc(C)cc3)n2N)cc(OC)c1OC` [2-(4-amino-5-(3,4,5-trimethoxyphenyl)-4H-1,2,4-triazole-3-ylthio)-1-(p-tolyl)ethanone], the IC50 was 0.37 µM with HCT116 cell line, 2.94 µM with HeLa cell line and 31.3 µM in the series with PC-3 cell line.
As for `Cc1ccc(COc2nn(CN3CCOCC3)c(=S)n2N=Cc2c[nH]nc2-c2ccc(F)cc2)cc1` [4-((3-(4-fluorophenyl)-1H-pyrazole-4-methylene)amino)-2-(morpholinomethyl)-5-(4-methylbenzyloxy)-2,4-dihydro-1,2,4-triazole-3-thione], in series [6], the IC50 is 0.034 µM.
Regarding `O=c1oc2ccccc2cc1-c1nnc2n1N=C(c1ccc(-c3ccccc3)cc1)CS2` [3-(6-(Biphenyl-4-yl)-7H-[1,2,4]triazolo[3,4-b][1,3,4]-thiadiazine-3-yl)-2H-chromen-2-one], the IC50 in series [3] is 1.01 ± 0.12 µM.
On to `CS(=O)(=O)c1ccc(Cc2nnc3n2N=C(c2ccccc2)CS3)cc1` [3-(4-(methylsulfonyl)benzyl)-6-phenyl-7H-[1,2,4]triazolo[3,4-b][1,3,4]thiadiazine], for which, in series [9], the IC50 was 25 µM.
Regarding `CC[C@]1(O)C[C@H]2CN(CCc3c([nH]c4ccccc34)[C@@](C(=O)OC)(c3cc4c(cc3OC)N(C=O)[C@H]3[C@@](O)(C(=O)OC)[C@H](OC(C)=O)[C@]5(CC)C=CCN6CC[C@]43[C@@H]65)C2)C1` [vincristine], the concentration for half-maximal inhibition (IC50) (with lung cancer (H157) cells; in series [3]) was 1.03 ± 0.04 µM throughout. In series [5], the inhibition is recorded as 74.5%.
Consider `Clc1ccc(C2=Nn3c(nnc3-c3cccnc3)SC2)cc1Cl` [6-(3,4-dichlorophenyl)-3-(pyridine-3-yl)-7H-[1,2,4]triazolo[3,4-b][1,3,4]thiadiazine], for which the IC50 in the series with lung cancer (H157) cells was 0.96 ± 0.43 µM.
As for `COc1cc(-c2nnc3n2N=C(c2ccc(Br)cc2)CS3)cc(OC)c1OC` [6-(4-bromophenyl)-3-(3,4,5-trimethoxyphenyl)-7H-[1,2,4]triazolo[3,4-b][1,3,4]thiadiazine], the IC50 is 3.15 ± 0.01 µM in [10], 3.34 ± 0.02 µM in [11], 0.3 ± 0.65 µM in [12] and 1.03 µM in the series with tubulin.
On to `COc1ccc(-n2nc(-c3nnc(SCCCO)n3-c3ccccc3)cc2-c2ccccc2)cc1` [3-((5-(1-(4-Methoxyphenyl)-5-phenyl-1H-pyrazole-3-yl)-4-phenyl-4H-1,2,4-triazole-3-yl)thio)propane-1-ol], for which the values for the IC50 in [13] and in series [7] were 2.72 µM and 2.98 µM, respectively.

(Values after patent publication EP3959200B1, “NEW TRIAZOLE AND TRIAZOLOTHIADIAZINE DERIVATIVES EXERTING CYTOTOXIC AND APOPTOTIC EFFECTS ON A549 CELLS THROUGH AKT INHIBITION” (Anadolu Universitesi, priority 2020, dated 2022).)
